Measured values as given in US9775844B2, “Heterocyclic compounds and uses thereof” (Infinity Pharmaceuticals, Inc., priority 2014, dated 2017).

What was measured:
[1] = test system: CD11b+ myeloid cells in 4T1 tumors; experiment: Immunohistochemistry of CD11b / CD68 myeloid cells in 4T1 tumors; assay type: in vivo, mouse; details: vs vehicle/controls
Protocol: Immunohistochemistry was performed to determine the distribution of immune cells within the tumor. In particular, CD11b myeloid cells were examined, as were regulatory vs. effector T cells (CD3, CD4, CD8, FoxP3). Briefly, IHC for CD11b or CD68+ was performed as follows. CD11b antibodies were available from Abcam, clone I-70, Catalong # ab 8878. CD68 antibodies were available from Abcam, clone FA-11, catalog # ab 53444. Tissues were fixed in cold methanol, air-dried, and then stained using a Res IHC Omni-UltraMap HRP XT protocol.
Without being bound by a particular theory, the decrease in the pro-tumorigenic tumor associated myeloid cells can result in activation of cytotoxic T-cells and anti-tumor immunity. […] When the images were quantified as CD11b+ cells per total viable cells (FIG. 37E), a Student t-Test p-value of 0.0355 was obtained when comparing the Compound BB-treated cells to controls. When the images were quantified as CD11b+ stained area per total visible area (FIG. 37F), a Student t-Test p-value of 0.0441 was obtained when comparing the Compound BB-treated cells to controls. […] When the images were quantified as CD11b+ cells per total viable cells (FIG. 37G), a Student t-Test p-value of 0.0864 (d16) or 0.3967 (d22) was obtained when comparing the Compound BB-treated cells to controls. […]

[2] = pKa; assay type: physicochemical
Excerpt: The phyiscochemical properties of Compound BB are drug-like, and suitable for use of the compound as a drug.

[3] = test system: Cytochrome P450 isoforms (all main CYPs); experiment: Cytochrome P450 inhibition; assay type: in vitro ADME; details: reversible inhibition, all Cyps; read-out: Rev Cyp Inhibition IC50
Excerpt: (§1) These properties indicate the compound's suitability for in vivo administration.

[4] = test system: Cytochrome P450 isoforms; experiment: Cytochrome P450 inhibition; assay type: in vitro ADME
Excerpt: as §1

[5] = test system: bone marrow cells differentiating into MDSCs; experiment: Myeloid Derived Suppressor Cell differentiation assay; assay type: cell-based; details: FIG. 24A/24B
Protocol: A similar experiment was performed on bone marrow cells differentiating into MDSCs.

[6] = Pharmacokinetics in monkey, oral; assay type: in vivo; details: 5 mg/kg oral
Excerpt: Compound BB's oral exposure is high in rat, dog and monkey. Good oral bioavailability and low clearance in rodent and non-rodent animal species results in high oral exposure.

[7] = test system: differentiation of myeloid cells into M2 TAMs; experiment: Murine M2 TAM differentiation (ARG1 levels); assay type: cell-based, mouse; details: FIG. 22A/22B
Excerpt: High ARG1 (Arginase-1) levels indicate that myeloid cells are differentiating into M2 macrophages, so lower ARG1 levels relative to a control indicate interference with differentiation into M2 macrophages. Expression of Arginase-1 depletes the tumor microenvironment of arginine, thereby promoting T cell death and NK cell inhibition. Schmid et. al., Proceedings: AACR 103rd Annual Meeting 2012, Cancer Research: Apr. 15, 2012; Volume 72, Issue 8, Supplement 1. […] M2 TAMs promote cancer cell survival (FIG. 23).
M2 macrophages can be produced as follows. Sacrifice mouse and collect femur and tibias Immerse the bones on a petri dish in 70% ethanol for 1-2 min, then remove the bones and let the ethanol dry off for 3-4 min. Cut off a very small portion of the end of the bones to make an easy access for needle insert. Using a 27 g needle filled will media containing DMEM+10% FBS+1% Pen/Strep (complete DMEM), expel the bone marrow from both ends of the bones into a 15 ml petri dish. Pipette the bone marrow to dissociate the bone marrow cells. Centrifuge and add 1× Red Cell lysis buffer to the pellet. Let RBC lyse for 2 min then add equal amount of complete DMEM and centrifuge. The bone marrow from one mouse can be divided into 2 petri dishes containing 7 ml of BMM media (DMEM+20% FBS+1% Pen/Strep+50 ng/ml M-CSF). […] The cells are ready for polarization on day 6. […]

[8] = test system: IL-8 induced neutrophil migration; experiment: IL-8 driven murine air pouch model; details: mouse air pouch; BB 0.1-3 mg/kg, AA 10-50 mg/kg
[9] = Dose-exposure proportionality; details: in vivo
[10] = Metabolic stability (microsome stability assay); assay type: in vitro ADME
Protocol: The stability of one or more subject compounds is determined according to standard procedures known in the art. For example, stability of one or more subject compounds is established by an in vitro assay. For example, an in vitro microsome stability assay is established that measures stability of one or more subject compounds when reacting with mouse, rat or human microsomes from liver. The microsome reaction with compounds is performed in 1.5 mL Eppendorf tube. Each tube contains 0.1 μL of 10.0 mg/mL NADPH; 75 μL of 20.0 mg/mL mouse, rat or human liver microsome; […] of 0.2 M phosphate buffer, and 425 μL of ddH2O. Negative control (without NADPH) tube contains 75 μL of 20.0 mg/mL mouse, rat or human liver microsome; […] of 0.2 M phosphate buffer, and 525 μL of ddH2O. The reaction is started by adding 1.0 μL of 10.0 mM tested compound. The reaction tubes are incubated at 37° C. 100 μL sample is collected into new Eppendorf tube containing 300 μL cold methanol at 0, 5, 10, 15, 30 and 60 minutes of reaction. Samples are centrifuged at 15,000 rpm to remove protein. Supernatant of centrifuged sample is transferred to new tube. Concentration of stable compound after reaction with microsome in the supernatant is measured by Liquid Chromatography/Mass Spectrometry (LC-MS).
as §1

[11] = test system: 4T1 breast cancer; experiment: Subcutaneous 4T1 breast cancer model; assay type: in vivo
[12] = test system: M2 macrophage markers VEGF and ARG-1; experiment: M2 macrophage marker expression with or without PDL-1 antibody (FIG. 42)

For `C[C@H](NC(=O)c1c(N)nn2cccnc12)c1cc2cccc(C#Cc3cnn(C)c3)c2c(=O)n1-c1ccccc1` [Compound BB], the “CD11b+ cells in 4T1 tumors (IHC)” value [1] was “statistically significant reduction in CD11b+ cells”, the pKa [2] was “no ionization from pH 3-10” and the IC50 [3] was over 10 µM. The CYP inhibition [4] was “does not substantially inhibit CYP”, the “reversible inhibition of main Cytochrome P450 isoforms” value [4] was “low potential for reversible inhibition” and the “Time dep Cyp Inhibition @ 10 uM” value ([4]; time dependent, 10 uM) was “Neg”. The “VEGF and ARG1 in MDSC differentiation assay” value [5] was “suppressed”, the “oral exposure (plasma concentrations within 24 hours)” value [6] was “high” and the “M2 TAM differentiation (ARG1 levels)” value [7] was “inhibited M2 TAM differentiation much more effectively than PI3K-δ inhibitor”. For the same compound, the “IL-8 induced neutrophil migration” value [8] was “blocks IL-8 induced neutrophil migration”, the dose-exposure proportionality [9] was “exhibits dose-exposure proportionality” and the metabolic stability [10] was “high metabolic stability”. The half-life at 20 µM ([10]; liver microsomes, microsomes, all species (incl rat)) was over 2 h, the single agent activity [11] was “demonstrated single agent activity” and the tumor growth ([11]; co-administration with docetaxel, paclitaxel, or 5-FU) was “achieved a further reduction in tumor growth”. The “M2 macrophage marker ARG-1” value [12] was “reduced” and the “M2 macrophage marker VEGF” value [12] was “reduced”.
